Values joined by “and” are separate entries in the source; they are usually repeats but may differ in a detail not shown here. Equal values may be shown once. Toxic doses and inconclusive results are not listed.
Test system: CD2F1 mice, L1210 leukemia ip, survival T/C
Assay: NCI In Vivo Anticancer Drug Screen. Data for tumor model L1210 Leukemia (intraperitoneal) in CD2F1 (CDF1) mice
Conditions: endpoint: mean survival time, higher = longer survival
Procedure, shortened: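 Ratio T/C, where T is the treated-group value and C the vehicle-dosed control value, from mice implanted with a transplantable tumor.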

[1] = dose: 25.0 mg/kg/injection, schedule: Q01DX009 (ip), vehicle: saline
[2] = dose: 50.0 mg/kg/injection, schedule: Q01DX009 (ip), vehicle: saline
[3] = dose: 100.0 mg/kg/injection, schedule: Q01DX009 (ip), vehicle: saline
[4] = dose: 100.0 mg/kg/injection, schedule: Q01DX009 (ip), vehicle: acetone
[5] = dose: 200.0 mg/kg/injection, schedule: Q01DX009 (ip), vehicle: acetone

CCOC(=O)NOP(=O)(N1CC1)N1CC1
T/C (dose: 12.5 mg/kg/injection, schedule: Q04DX002 (ip), vehicle: saline with Tween-80): 116 % of control
T/C (dose: 50.0 mg/kg/injection, schedule: Q04DX002 (ip), vehicle: saline with Tween-80): 166 % of control
T/C (dose: 100.0 mg/kg/injection, schedule: Q04DX002 (ip), vehicle: saline with Tween-80): 186 % of control

c1ccc(N=C2CCCCC2)cc1
T/C (dose: 100.0 mg/kg/injection, schedule: Q01DX001 (ip), vehicle: other): 115 % of control
T/C (dose: 100.0 mg/kg/injection, schedule: Q01DX001 (ip), vehicle: saline + Tween-80 + alcohol): 98 % of control
T/C (dose: 200.0 mg/kg/injection, schedule: Q01DX001 (ip), vehicle: other): 93 % of control
T/C (dose: 200.0 mg/kg/injection, schedule: Q01DX001 (ip), vehicle: saline + Tween-80 + alcohol): 102 % of control
T/C (dose: 400.0 mg/kg/injection, schedule: Q01DX001 (ip), vehicle: other): 120 % of control
T/C (dose: 400.0 mg/kg/injection, schedule: Q01DX001 (ip), vehicle: saline + Tween-80 + alcohol): 103 % of control
T/C (dose: 600.0 mg/kg/injection, schedule: Q01DX001 (ip), vehicle: saline + Tween-80 + alcohol): 105 % of control

O=S(=O)(O)c1ccc(-c2ccc(S(=O)(=O)O)cc2)cc1 (tested in a mixture with another compound)
T/C (dose: 6.3 mg/kg/injection, schedule: Q01DX009 (ip), vehicle: saline): 95 % of control
T/C (dose: 6.3 mg/kg/injection, schedule: Q04DX003 (ip), vehicle: saline): 121 % of control and 108 % of control
T/C (dose: 12.0 mg/kg/injection, schedule: Q01DX001 (ip), vehicle: saline): 118 % of control
T/C (dose: 12.5 mg/kg/injection, schedule: Q01DX001 (ip), vehicle: saline): 117 % of control and 123 % of control
T/C (dose: 12.5 mg/kg/injection, schedule: Q01DX009 (ip), vehicle: saline): 150 % of control
T/C (dose: 12.5 mg/kg/injection, schedule: Q04DX003 (ip), vehicle: saline): 122 % of control
T/C [1]: 162 % of control and 172 % of control and 180 % of control
T/C (dose: 50.0 mg/kg/injection, schedule: Q01DX001 (ip), vehicle: saline): 150 % of control
T/C [2]: 115 % of control and 205 % of control and 342 % of control
T/C (dose: 50.0 mg/kg/injection, schedule: Q04DX003 (ip), vehicle: saline): 160 % of control and 190 % of control and 205 % of control
T/C (dose: 75.0 mg/kg/injection, schedule: Q04DX003 (ip), vehicle: saline): 195 % of control
T/C [3]: 100 % of control and 102 % of control
T/C (dose: 100.0 mg/kg/injection, schedule: Q04DX003 (ip), vehicle: saline): 248 % of control and 275 % of control and 489 % of control
T/C (dose: 150.0 mg/kg/injection, schedule: Q04DX003 (ip), vehicle: saline): 217 % of control
T/C (dose: 200.0 mg/kg/injection, schedule: Q04DX003 (ip), vehicle: saline): 120 % of control

Cc1cc(C)c(/C(O)=C/C(=S)N2CCOCC2)c(C)c1
T/C (dose: 100.0 mg/kg/injection, schedule: Q04DX003 (ip), vehicle: saline with Tween-80): 98 % of control
T/C (dose: 200.0 mg/kg/injection, schedule: Q04DX003 (ip), vehicle: saline with Tween-80): 98 % of control
T/C (dose: 400.0 mg/kg/injection, schedule: Q04DX003 (ip), vehicle: saline with Tween-80): 98 % of control

CCN(CC)CCCC(C)Nc1nnc2c(=O)n(C)c(=O)n(C)c2n1 (stereo unspecified)
T/C (dose: 75.0 mg/kg/injection, schedule: Q01DX001 (ip), vehicle: saline): 95 % of control
T/C (dose: 150.0 mg/kg/injection, schedule: Q01DX001 (ip), vehicle: saline): 93 % of control
T/C (dose: 300.0 mg/kg/injection, schedule: Q01DX001 (ip), vehicle: saline): 87 % of control

CCOC(=O)C12CCC(C1=O)C(C)(O)CC2 (stereo unspecified)
T/C (dose: 50.0 mg/kg/injection, schedule: Q01DX009 (ip), vehicle: acetone): 92 % of control
T/C [4]: 90 % of control
T/C [5]: 94 % of control

C1=CC2C3=CC1C=CC32 (stereo unspecified)
T/C [4]: 92 % of control
T/C [5]: 95 % of control

NC(CSCc1cccs1)C(=O)O (stereo unspecified)
T/C [1]: 94 % of control
T/C [2]: 100 % of control
T/C [3]: 90 % of control
T/C (dose: 200.0 mg/kg/injection, schedule: Q01DX009 (ip), vehicle: saline): 101 % of control
T/C (dose: 400.0 mg/kg/injection, schedule: Q01DX009 (ip), vehicle: saline): 95 % of control

CCCN(CCC)CN(CCC)CCC
T/C [2]: 98 % of control
T/C [3]: 105 % of control

COc1cc2cccc(OC)c(=O)c2c(O)c1OC
T/C (dose: 100.0 mg/kg/injection, schedule: Q01DX001 (ip), vehicle: saline): 98 % of control
T/C (dose: 200.0 mg/kg/injection, schedule: Q01DX001 (ip), vehicle: saline): 101 % of control
T/C (dose: 400.0 mg/kg/injection, schedule: Q01DX001 (ip), vehicle: saline): 101 % of control
